Experimental data published in article PMC4686663, “Ultrahigh-throughput discovery of promiscuous enzymes by picodroplet functional metagenomics” (Nature Communications, 2015).
Structures can show the parent of a compound that is named as a salt. Where two headings read alike, the source gives them in different places.

Tests used:
[1] = molecular target: T1, P40 (uncultured organism, UniProt A0A141FA90); experiment: sulfate transfer kinetics; assay type: biochemical; details: acceptor phenolate; ping-pong mechanism
T1 construct: ORF p40 recloned in modified pRSFDuet (NcoI-XhoI), E. coli BL21(DE3); no tag stated

[2] = system: T2, P85; experiment: 4-nitrophenolate release, […] nm, initial rates; assay type: biochemical; details: 100 mM MOPS-NaOH pH 8.0, 150 mM NaCl, 25 °C
T2 construct: N-terminal Strep-tag, pASKIBA5plus (BsaI), E. coli BL21(DE3); Strep-Tactin and gel filtration

[3] = molecular target: T3, P86 (uncultured organism, UniProt A0A141FA97); experiment: 4-nitrophenolate release, […] nm, initial rates; assay type: biochemical; details: 100 mM MOPS-NaOH pH 8.0, 150 mM NaCl, 25 °C
T3 construct: N-terminal Strep-tag, pASKIBA5plus (EcoRI-NcoI), E. coli BL21(DE3); Strep-Tactin and gel filtration

[4] = molecular target: T4, P83 (uncultured organism, UniProt A0A141FA94); experiment: 4-nitrophenolate release, […] nm, initial rates; assay type: biochemical; details: 100 mM MOPS-NaOH pH 8.0, 150 mM NaCl, 25 °C
T4 construct: N-terminal Strep-tag, pASKIBA5plus (BsaI), E. coli BL21(DE3); Strep-Tactin and gel filtration

[5] = molecular target: P84 (uncultured organism, UniProt A0A141FA95); experiment: 4-nitrophenolate release, […] nm, initial rates; details: 100 mM MOPS-NaOH pH 8.0, 150 mM NaCl, 25 °C
[6] = substrate: O=C1CCc2ccccc2O1; experiment: purified protein, by the assay type; set-up: Michaelis-Menten kinetics of substrate hydrolysis by purified enzyme, initial rates by absorbance or fluorescence, plate reader
Procedure: (§1) All enzymatic assays were conducted at 25 °C in a final volume of 200 μl, in the activity buffer (100 mM MOPS-NaOH pH 8.0, containing 150 mM NaCl) that was used throughout the experiments, unless otherwise stated. Measurements were performed in 96-well plate format and product formation followed in SpectraMax M5 or 190 microplate readers. Hydrolysis of substrates with fluorescein leaving groups (1d and 2d) was monitored at the following wavelengths: λexcitation=488 nm and λemission=525 nm. A calibration curve (linearly fit to the equation: fluorescence=1.2 × 10^10 M^−1 [fluorescein]) was used to quantify fluorescein release. Hydrolysis of esters 1, 2a, 2b, 3, 4, 5, 6 and acetamide 9 was monitored by measuring absorbance of p-nitrophenolate at 400 nm (ɛ≈17,700 M^−1 cm^−1). Hydrolysis of thioester 7 was measured in the presence of the indicator 5,5'-dithiobis-(2-nitrobenzoic acid) (500 μM); the increase of 2-nitro-5-thiobenzoate was monitored at 412 nm (ɛ≈13,100 M^−1 cm^−1)[39]. Hydrolysis of lactones 8b, 8c, 8d1, 8d2 was measured using a pH-shift assay in 2.5 mM Bicine, 200 mM NaCl, 0.3 mM cresol purple pH 8.3 (ref. [65]). The pH drop was monitored by the decrease in the absorbance of the indicator dye cresol purple at 577 nm (ɛ≈4,000 M^−1 cm^−1). Hydrolysis of lactone 8a was measured at 270 nm in an ultraviolet-transparent 96-well plate. Hydrolysis of β-lactam 10 was measured at 405 nm in phosphate buffer (100 mM, pH 8.0). All kinetic parameters were calculated by fitting initial rates vo to the Michaelis–Menten equations (or, if saturation could not be reached due to solubility limits, to linear correlations) using Kaleidagraph. Example data and details of equations used for fitting are shown in Supplementary Fig. 14. (b) PTE hits. Applying the screening workflow to PTEs (using triester 2d as substrate) led to the isolation of eight unique and novel sequences, mostly originating from unknown microorganisms (Supplementary Table 2). Only one of these genes (p83) was predicted as a potential PTE by Pfam domain recognition (Fig. 3). […]

[7] = substrate: CC(=O)Oc1ccc([N+](=O)[O-])cc1; experiment: purified protein, by the assay type; set-up: Michaelis-Menten kinetics of substrate hydrolysis by purified enzyme, initial rates by absorbance or fluorescence, plate reader; details: 25.0 °C
Procedure: as §1

T1 sequence (A0A141FA90 entry or part of it): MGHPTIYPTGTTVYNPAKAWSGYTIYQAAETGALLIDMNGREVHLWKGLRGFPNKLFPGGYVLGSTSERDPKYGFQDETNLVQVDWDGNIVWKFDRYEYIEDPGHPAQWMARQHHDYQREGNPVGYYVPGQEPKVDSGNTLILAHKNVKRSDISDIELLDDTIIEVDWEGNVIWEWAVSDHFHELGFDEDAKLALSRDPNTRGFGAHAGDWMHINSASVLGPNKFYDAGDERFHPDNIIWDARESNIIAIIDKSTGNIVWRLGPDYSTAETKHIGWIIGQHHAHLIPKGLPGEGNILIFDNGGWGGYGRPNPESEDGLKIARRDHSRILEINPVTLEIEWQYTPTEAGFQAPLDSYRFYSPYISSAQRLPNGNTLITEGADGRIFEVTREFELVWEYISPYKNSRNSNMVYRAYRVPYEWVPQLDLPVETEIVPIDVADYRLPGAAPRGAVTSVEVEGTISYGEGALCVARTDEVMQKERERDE
P84, sequence (A0A141FA95 entry or part of it): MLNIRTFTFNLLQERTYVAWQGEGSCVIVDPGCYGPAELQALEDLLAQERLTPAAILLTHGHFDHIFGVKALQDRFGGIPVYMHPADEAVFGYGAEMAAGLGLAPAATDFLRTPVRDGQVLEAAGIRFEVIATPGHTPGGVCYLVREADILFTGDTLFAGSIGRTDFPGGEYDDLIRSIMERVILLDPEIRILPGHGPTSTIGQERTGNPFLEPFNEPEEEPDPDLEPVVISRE
T3 sequence (A0A141FA97 entry or part of it): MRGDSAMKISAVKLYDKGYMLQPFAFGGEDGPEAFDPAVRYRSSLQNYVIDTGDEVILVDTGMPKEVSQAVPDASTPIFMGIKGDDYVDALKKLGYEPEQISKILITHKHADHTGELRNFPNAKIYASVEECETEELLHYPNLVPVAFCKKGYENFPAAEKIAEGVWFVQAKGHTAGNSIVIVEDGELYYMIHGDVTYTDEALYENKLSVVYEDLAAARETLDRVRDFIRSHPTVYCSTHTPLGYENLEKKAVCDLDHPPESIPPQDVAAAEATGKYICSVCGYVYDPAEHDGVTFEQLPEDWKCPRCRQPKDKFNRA

**Q.** How did the sulfate transfer kinetics [1] turn out when `O=[N+]([O-])c1ccc(OS(=O)(=O)O)cc1` [1a, sulfate ester 1a] was run?
**A.** P40 was shown to catalyse sulfate transfer from sulfate ester 1a to phenolate

**Q.** Which results are given for `CCOP(=O)(OCC)Oc1ccc([N+](=O)[O-])cc1` [2a, paraoxon]?
**A.** Km [2]: > 5 mM; Km [3]: > 5 mM; Km [4]: > 5 mM; Km [5]: > 5 mM

B1: P83 (uncultured organism) (protein)
chain: MQINSVLGPVDTADLGFTLIHEHLLIGWAGWQWDSRWEFDRANAMAKAVDLLQELKALGVSTFVDPCPMDIGRDPEFLAEASQRSGMTIIASTGLYHSEMGIPSYFHAMPEEEIAEIFIHDLTEGMGHTGIKAGIIKCATTAGHVTEQEQKTHGAAARAQVATGAPIITHTDENGPMGLAQLDIFESRGASVSKIAIGHSCGNGDIRYLLSVLERGAWLSFDRFGFGLSASDDVRVASLLGLIGLGYADRLMISHDSVSTFLAKPGGWDPAQEPSLANWKPTHIIQNIIPRLKNAGVSQEVIDTITIDNPRRYFEGSAASGNK
notes: N-terminal Strep-tag, pASKIBA5plus (BsaI), E. coli BL21(DE3); Strep-Tactin and gel filtration
**Q.** How did the Km [6] turn out when B1 was run?
**A.** 2.5 ± 0.4 mM

B2: P91 (uncultured organism) (protein)
chain: MTARKVDYTDGATRCIGEFHWDEGKSGPRPGVVVFPEAFGLNDHAKERARRLADLGFAALAADMHGDAQVFDAASLSSTIQGYYGDRAHWRRRAQAALDALTAQPEVDGSKVAAIGFCFGGATCLELARTGAPLTAIVTFHGGLLPEMAGDAGRIQSSVLVCHGADDPLVQDETMKAVMDEFRRDKVDWQVLYLGNAVHSFTDPLAGSHGIPGLAYDATAEARSWTAMCNLFSELFG
notes: as for B1
**Q.** Which Km ([6]; 25.0 °C) does the source give for B2 here?
**A.** 7.7 ± 2.5 mM

B3: P88.2 (uncultured organism) (protein)
chain: MNLTETLPGDELANAMAARGYPAVEPATTRDRGVGPFRRLVLRGARILDGTGAPPVGPYDIVVEGGRIKEVVLVGVPKMPIKPERRPAPGDHEIDCTGKLVTPGFVDAHVHIGTYYHAPSGPMPSADYVYKLWLAHGITTVREMACMNGVGWTLEQKEAAAANRIAAPKIVAHAYFPAVDEFIKTIYTVEQARKWVRAVKERGVDGLKFFGAPPAIMQAALEEANKLGMRSGCHHAQMSVSKVNALRSAQWGLTSTEHFYGIPEAMFIDRAVQAYPVGYDFMDESLRYNSSSQNFIQAAEPGSAKWQETLEKFLELGHSFVPTLAILEANRDLMRARRADWHDEYTHKTLWTYFQPHRGGHCSHWYRWTTTNEVQWKEHFRRWMRFCNDYKNLGGRVCPGSDAGFTFQLYGFCFIRELEQMQEAGFHPLEIFRAATSESAALLGVDHETGTIEPGKCADLLVHRYDPLDDLKYLYGTGAWRLNDETGKTEWHRGIEYTIKDGVIYDPAELLADVRAIVAESFNEGEDTRPRTRR
notes: N-terminal Strep-tag, pASKIBA5plus (EcoRI-NcoI), E. coli BL21(DE3); Strep-Tactin and gel filtration
**Q.** With B3 as the molecule, how does the Km [7] read?
**A.** 2.9 ± 1.2 mM
